Columns and labels:
TIMP-1 = test: Content of TIMP-1 in dermal fibroblast culture with and without UVA radiation; assay type: cell-based, human; conditions: concentration 0.1 μM
Procedure: To carry out the experiment, a fibroblast culture was prepared in a defined culture medium (DMEM) with fetal calf serum and inoculated 2–3 days later with the test substances. […] The abbreviation TIMP is understood as meaning a naturally occurring inhibitor of the metalloproteinase under the name “tissue inhibitor of matrix metalloproteinase”. The MMP and TIMP were determined using two different kits, which are commercially available under the name RPN2610 and RPN2611 from Amersham. The data given is the amount of MMP-1 and TIMP-1 in ng/ml from a test series with triple determination.

Human MMP-1 = test: Release of MMP-1 from dermal fibroblasts with and without UVA radiation; assay type: cell-based; conditions: concentration 0.1 μM
Excerpt: The ability of leaf extracts from Argania spinosa to reduce the toxic effect of UVA rays was investigated. This in vitro test investigates the ability to reduce the content of matrix metalloproteinases, such as, for example, MMP-1, which are released by human fibroblasts following UVA radiation. More MMP are released under the influence of UVA radiation. UVA rays were chosen as the model since they penetrate into the dermis, where they induce oxidative stress, which accelerates skin aging. Furthermore, it is already known that the release of matrix metalloproteinases increases during the normal aging process of the skin. Inhibition of the MMP would thus counteract the aging process of the skin. The in vitro system used was a culture of dermal fibroblasts, and the parameter determined was the release of MMP-1 from these fibroblasts under the influence of UV radiation. To carry out the experiment, a fibroblast culture was prepared in a defined culture medium (DMEM) with fetal calf serum and inoculated 2–3 days later with the test substances. […] The abbreviation TIMP is understood as meaning a naturally occurring inhibitor of the metalloproteinase under the name “tissue inhibitor of matrix metalloproteinase”. The MMP and TIMP were determined using two different kits, which are commercially available under the name RPN2610 and RPN2611 from Amersham. […]

Tyrosinase [1] = conditions: concentration for 50% inhibition; L-DOPA; dopachrome at 475 nm
Procedure: (§8) Tyrosinase inhibition: L-DOPA was mixed with tyrosinase and the extract to be tested. The optical density of the dopachrome was analyzed at 475 nm. The kinetics were then investigated and the concentration for a 50% strength inhibition (EC50) was determined.

[2] = test system: TIMP-1 in human dermal fibroblast culture; test: Content of TIMP-1 in supernatant of dermal fibroblasts with and without UVA radiation; assay type: cell-based
Excerpt: (§1) The ability of leaf extracts from Argania spinosa to reduce the toxic effect of UVA rays was investigated. This in vitro test investigates the ability to reduce the content of matrix metalloproteinases, such as, for example, MMP-1, which are released by human fibroblasts following UVA radiation. More MMP are released under the influence of UVA radiation. UVA rays were chosen as the model since they penetrate into the dermis, where they induce oxidative stress, which accelerates skin aging. Furthermore, it is already known that the release of matrix metalloproteinases increases during the normal aging process of the skin. Inhibition of the MMP would thus counteract the aging process of the skin.
(§2) The in vitro system used was a culture of dermal fibroblasts, and the parameter determined was the release of MMP-1 from these fibroblasts under the influence of UV radiation.
(§3) To carry out the experiment, a fibroblast culture was prepared in a defined culture medium (DMEM) with fetal calf serum and inoculated 2–3 days later with the test substances. […] After the end of the irradiation, the fibroblast culture was incubated again for 2 days, and then, on a sample of the supernatant of the culture solution, the content of MMP-1 and TIMP-1 was determined. […]
(§4) The MMP and TIMP were determined using two different kits, which are commercially available under the name RPN2610 and RPN2611 from Amersham. […]

[3] = test system: MMP-1 released by human dermal fibroblasts; test: Release of MMP-1 by dermal fibroblasts with and without UVA radiation; assay type: cell-based
Excerpt: as §1, §2, §3, §4

tyrosinase [4] = test: Tyrosinase inhibition in tubo; assay type: biochemical; conditions: L-DOPA substrate; dopachrome optical density 475 nm; concentration for 50% inhibition
Procedure: as §8

B16 melanocytes = test: Inhibition of melanogenesis on B16 melanocytes; assay type: cell-based; conditions: concentration 0.0003% by wt.; ratio of proportion of proteins to content of melanin
Procedure: 2. Inhibition of melanogenesis on B16 melanocytes: The B16 melanocytes are cultivated in a defined medium (DMEM with 10% fetal calf serum) and incubated for 3 days at 37° C. and 5% CO2. The growth medium was replaced by the defined medium without calf serum, which comprised a certain content of the extracts to be tested. After further incubation for 3 days, the proportion of intact cells was determined via the content of cell proteins in accordance with the Bradford method (Anal. Biochem. 72, 248–254, 1976), and the content of melanin formed was determined by analyzing the optical density at 475 nm in accordance with the method described by Ando et al. 17th IFSCC Congress—Yokohama, 2, 909–918, 1992.
The results were determined as activity index in the ratio of proportion of proteins to content of melanin: the greater the index, the higher the inhibition activity and the lower the stimulation of melanogenesis.

[5] = target: collagenase from Chlostridium histolyticum; test: Collagenase inhibition, chromogenic synthetic substrate C (FALGPA); assay type: biochemical; conditions: incubation 30 min, 20° C., OD at 234 nm
Procedure: (§5) The biochemical test of collagenase inhibition was realized with a collagenase from Chlostridium histolyticum in a chromogenic synthetic substrate C: FALGPA (furylacryloyl-Leu-Gly-Pro-Ala), a specific substrate for collagenase, which […] by the enzyme. This substrate was obtained from SIGMA.
(§6) The amount of extracts used was 0.3% by weight, and the incubation time was 30 min (20° C.). The inhibition was investigated by determining the optical density “OD” at 234 nm.

[6] = test system: collagenase from Chlostridium histolyticum; test: Collagenase inhibition, substrate C FALGPA; assay type: biochemical; conditions: 30 min, 20° C.
Procedure: as §5, §6

pancreas elastase [7] = test: Inhibition of the elastase activity; assay type: biochemical; conditions: chromogenic synthetic substrate A; 30 min, 20° C.
Sequence of pancreas elastase (Q9UNI1 19-258): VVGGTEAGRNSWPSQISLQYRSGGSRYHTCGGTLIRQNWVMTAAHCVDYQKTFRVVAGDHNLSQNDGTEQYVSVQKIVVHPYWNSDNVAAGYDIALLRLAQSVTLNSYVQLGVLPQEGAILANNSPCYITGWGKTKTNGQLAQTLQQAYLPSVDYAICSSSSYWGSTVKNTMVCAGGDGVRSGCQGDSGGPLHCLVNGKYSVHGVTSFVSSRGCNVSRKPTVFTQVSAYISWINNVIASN
Procedure: (§7) Serine proteases, such as, for example, elastase or collagenase, bring about the degradation of elastin, proteoglycans and collagen and thus cause a weakening of the connective tissue. In the following test, the inhibiting properties of the extracts toward a pancreas elastase were investigated in two systems, firstly in a chromogenic synthetic substrate A and secondly in a natural substrate B (elastin/Congo Red). The amount of extracts used was 0.3% by weight, and the incubation time was 30 min (20° C.). The inhibition was monitored photometrically at 410 and 520 nm, and the standard used was α1-antitrypsin ([…]).

pancreas elastase [8] = target: pancreas elastase (Homo sapiens, UniProt Q9UNI1); test: Inhibition of the elastase activity; assay type: biochemical; conditions: natural substrate B (elastin/Congo Red); 30 min, 20° C.
Sequence of pancreas elastase (Homo sapiens, UniProt Q9UNI1) (Q9UNI1 19-258): as above
Procedure: as §7

Molecule: C[C@@H]1C[C@H]2[C@@H]3CCC4=CC(=O)C=C[C@]4(C)[C@@]3(F)[C@@H](O)C[C@]2(C)[C@@]1(O)C(=O)CO [Dexamethasone, dexamethasone]
- TIMP-1 in ng/ml (TIMP-1; UVA 20 J/cm^2): 19 ng/mL
- TIMP-1 in ng/ml (TIMP-1; without UVA radiation): 39 ng/mL
- MMP-1 in ng/ml (Human MMP-1; UVA 20 J/cm^2): 7 ng/mL
- MMP-1 in ng/ml (Human MMP-1; without UVA radiation): 2 ng/mL

Molecule: Oc1ccc(O)cc1 [Hydroquinone]
- EC50 (Tyrosinase in tubo) (Tyrosinase [1]): EC50 = 0.025%

Molecule: C[C@@H]1C[C@H]2[C@@H]3CCC4=CC(=O)C=C[C@]4(C)[C@@]3(F)[C@@H](O)C[C@]2(C)[C@@]1(O)C(=O)CO [Dexamethasone]
- content of TIMP-1 (in words) [2]: reduction in the content of TIMP-1
- content of MMP-1 (in words) [3]: content of MMP-1 was already reduced

Molecule: Oc1ccc(O)cc1 [Hydroquinone, hydroquinone]
- Tyrosinase in tubo EC50 (tyrosinase [4]): EC50 = 0.025%
- Melanin synthesis Index (B16 melanocytes): 2.21

Molecule: N[C@@H](CS)C(=O)O [Cystein]
- IC50 (Collagenase inhibition) [5]: IC50 = 1.56%
- Collagenase inhibition IC50, Substrate C [6]: IC50 = 1.56%

Molecule: α1-antitrypsin
- Elastase inhibition IC50, Substrate A (pancreas elastase [7]): IC50 = 0.01%
- Elastase inhibition IC50, Substrate B (pancreas elastase [8]): IC50 = 0.034%

From patent US7105184B2, “Cosmetic and/or dermopharmaceutical preparations containing leaf extracts of the plant Argania spinosa” (Cognis France S.A., priority 2000, dated 2006)
